The values that follow come from ChEMBL document CHEMBL3627608, “Crystal structures of human RIP2 kinase catalytic domain complexed with ATP-competitive inhibitors: Foundations for understanding inhibitor selectivity” (Bioorg Med Chem, 2015).

Experiment [1] deals with Cell division cycle 7-related protein kinase (Homo sapiens) (UniProt O00311). The experiment is described as follows: Inhibition of CDC7 (unknown origin) at 10 uM after 120 mins P33 radiolabeled kinase activity assay.
The target in experiment [2] is Protein-tyrosine kinase 6 (Homo sapiens) (UniProt Q13882). The experiment in a line: Inhibition of BRK (unknown origin) at 10 uM after 120 mins P33 radiolabeled kinase activity assay.
Experiment [3] deals with T1, Serine/threonine-protein kinase D2 (Homo sapiens) (UniProt Q9BZL6).
T1 sequence (whole entry): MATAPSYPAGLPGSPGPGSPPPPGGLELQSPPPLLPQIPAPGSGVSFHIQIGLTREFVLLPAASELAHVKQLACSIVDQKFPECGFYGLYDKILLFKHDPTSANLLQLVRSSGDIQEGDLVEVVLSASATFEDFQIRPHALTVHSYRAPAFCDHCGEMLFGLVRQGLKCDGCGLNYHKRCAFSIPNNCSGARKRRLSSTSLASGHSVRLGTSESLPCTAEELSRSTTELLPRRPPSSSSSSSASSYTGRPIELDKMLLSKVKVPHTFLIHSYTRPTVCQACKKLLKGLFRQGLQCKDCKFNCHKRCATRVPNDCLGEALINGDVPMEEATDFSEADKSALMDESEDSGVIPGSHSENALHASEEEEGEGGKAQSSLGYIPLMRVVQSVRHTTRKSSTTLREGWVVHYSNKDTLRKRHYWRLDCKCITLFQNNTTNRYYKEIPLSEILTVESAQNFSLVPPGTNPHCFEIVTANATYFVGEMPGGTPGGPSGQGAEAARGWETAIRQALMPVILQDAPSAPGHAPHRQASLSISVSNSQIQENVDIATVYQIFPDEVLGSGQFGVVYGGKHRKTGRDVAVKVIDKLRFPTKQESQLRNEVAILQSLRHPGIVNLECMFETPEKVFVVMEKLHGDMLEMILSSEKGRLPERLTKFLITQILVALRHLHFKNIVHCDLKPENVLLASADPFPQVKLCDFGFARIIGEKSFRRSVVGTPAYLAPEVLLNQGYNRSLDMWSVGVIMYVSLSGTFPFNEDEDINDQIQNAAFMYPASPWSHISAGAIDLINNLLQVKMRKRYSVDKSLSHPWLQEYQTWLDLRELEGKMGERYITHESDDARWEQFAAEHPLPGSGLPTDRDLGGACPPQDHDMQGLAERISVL
The experiment in a line: Inhibition of PKD2 (unknown origin) at 10 uM after 120 mins P33 radiolabeled kinase activity assay.

The target in experiment [4] is MAP kinase-interacting serine/threonine-protein kinase 1 (Homo sapiens) (UniProt Q9BUB5). The experiment is described as follows: Inhibition of MNK1 (unknown origin) at 10 uM after 120 mins P33 radiolabeled kinase activity assay.
Experiment [5] deals with Tyrosine-protein kinase Fgr (Homo sapiens) (UniProt P09769). The experiment is described as follows: Inhibition of FGR (unknown origin) at 10 uM after 120 mins P33 radiolabeled kinase activity assay.
Experiment [6] concerns the target T2, Serine/threonine-protein kinase LATS2 (Homo sapiens) (UniProt Q9NRM7).
T2 sequence (whole entry): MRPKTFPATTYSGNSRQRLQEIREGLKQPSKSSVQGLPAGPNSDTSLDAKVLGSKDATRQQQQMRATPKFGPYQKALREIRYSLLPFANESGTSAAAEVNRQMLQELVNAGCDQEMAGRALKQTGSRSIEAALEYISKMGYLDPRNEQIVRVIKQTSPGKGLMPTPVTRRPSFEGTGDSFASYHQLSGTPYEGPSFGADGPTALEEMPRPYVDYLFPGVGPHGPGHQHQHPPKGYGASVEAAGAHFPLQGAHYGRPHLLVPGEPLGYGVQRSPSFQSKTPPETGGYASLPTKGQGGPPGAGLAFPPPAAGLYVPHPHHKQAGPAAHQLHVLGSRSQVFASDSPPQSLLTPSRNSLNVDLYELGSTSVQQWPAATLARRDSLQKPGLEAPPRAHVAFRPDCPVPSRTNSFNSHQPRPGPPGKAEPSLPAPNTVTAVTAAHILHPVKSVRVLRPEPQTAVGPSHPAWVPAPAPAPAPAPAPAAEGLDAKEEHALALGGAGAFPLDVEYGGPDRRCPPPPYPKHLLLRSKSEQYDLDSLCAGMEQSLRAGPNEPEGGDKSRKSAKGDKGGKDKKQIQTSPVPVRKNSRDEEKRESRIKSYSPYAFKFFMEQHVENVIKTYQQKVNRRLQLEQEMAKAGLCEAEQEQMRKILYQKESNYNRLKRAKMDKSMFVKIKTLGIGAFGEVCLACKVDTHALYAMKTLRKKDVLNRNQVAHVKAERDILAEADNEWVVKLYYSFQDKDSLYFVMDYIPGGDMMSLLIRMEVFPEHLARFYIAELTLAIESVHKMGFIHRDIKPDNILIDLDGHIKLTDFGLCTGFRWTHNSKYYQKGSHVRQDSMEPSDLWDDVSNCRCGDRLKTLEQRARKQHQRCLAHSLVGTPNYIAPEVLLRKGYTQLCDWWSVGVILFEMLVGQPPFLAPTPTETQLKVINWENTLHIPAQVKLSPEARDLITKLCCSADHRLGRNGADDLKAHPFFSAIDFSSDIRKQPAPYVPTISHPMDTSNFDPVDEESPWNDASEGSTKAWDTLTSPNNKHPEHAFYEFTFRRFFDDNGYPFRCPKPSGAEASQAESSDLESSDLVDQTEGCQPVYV
The experiment is described as follows: Inhibition of LATS2 (unknown origin) at 10 uM after 120 mins P33 radiolabeled kinase activity assay.

Experiment [7] addresses T3, Serine/threonine-protein kinase Sgk3 (Homo sapiens) (UniProt Q96BR1).
T3 sequence (whole entry): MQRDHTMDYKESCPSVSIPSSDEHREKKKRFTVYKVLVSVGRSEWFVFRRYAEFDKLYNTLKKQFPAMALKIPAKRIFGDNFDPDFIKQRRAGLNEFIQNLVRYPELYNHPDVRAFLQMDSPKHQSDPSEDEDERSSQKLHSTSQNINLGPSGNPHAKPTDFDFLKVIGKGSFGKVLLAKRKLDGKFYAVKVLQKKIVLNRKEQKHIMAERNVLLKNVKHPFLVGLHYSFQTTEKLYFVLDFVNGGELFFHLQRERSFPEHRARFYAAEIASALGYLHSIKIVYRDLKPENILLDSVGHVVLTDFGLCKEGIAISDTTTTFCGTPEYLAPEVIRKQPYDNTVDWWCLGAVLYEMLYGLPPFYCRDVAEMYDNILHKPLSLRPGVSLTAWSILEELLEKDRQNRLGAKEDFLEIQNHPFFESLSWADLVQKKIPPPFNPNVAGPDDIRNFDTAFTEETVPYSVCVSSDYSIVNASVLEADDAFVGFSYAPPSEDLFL
The experiment is described as follows: Inhibition of SGK3 (unknown origin) at 10 uM after 120 mins P33 radiolabeled kinase activity assay.

The target in experiment [8] is Serine/threonine-protein kinase pim-2 (Homo sapiens) (UniProt Q9P1W9). The experiment is described as follows: Inhibition of PIM2 (unknown origin) at 10 uM after 120 mins P33 radiolabeled kinase activity assay.
Sequence of Serine/threonine-protein kinase pim-2 (Homo sapiens) (Q9P1W9 whole entry, looked up): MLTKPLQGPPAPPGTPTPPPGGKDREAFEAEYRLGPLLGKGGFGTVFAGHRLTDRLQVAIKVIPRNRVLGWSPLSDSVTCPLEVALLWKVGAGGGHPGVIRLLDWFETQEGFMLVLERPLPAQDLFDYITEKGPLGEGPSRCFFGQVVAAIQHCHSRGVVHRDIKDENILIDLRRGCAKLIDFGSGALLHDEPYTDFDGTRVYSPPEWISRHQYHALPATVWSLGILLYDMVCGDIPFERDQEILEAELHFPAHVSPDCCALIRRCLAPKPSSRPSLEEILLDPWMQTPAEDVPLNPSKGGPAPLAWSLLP

Sequence of Cell division cycle 7-related protein kinase (Homo sapiens) (O00311 whole entry, looked up): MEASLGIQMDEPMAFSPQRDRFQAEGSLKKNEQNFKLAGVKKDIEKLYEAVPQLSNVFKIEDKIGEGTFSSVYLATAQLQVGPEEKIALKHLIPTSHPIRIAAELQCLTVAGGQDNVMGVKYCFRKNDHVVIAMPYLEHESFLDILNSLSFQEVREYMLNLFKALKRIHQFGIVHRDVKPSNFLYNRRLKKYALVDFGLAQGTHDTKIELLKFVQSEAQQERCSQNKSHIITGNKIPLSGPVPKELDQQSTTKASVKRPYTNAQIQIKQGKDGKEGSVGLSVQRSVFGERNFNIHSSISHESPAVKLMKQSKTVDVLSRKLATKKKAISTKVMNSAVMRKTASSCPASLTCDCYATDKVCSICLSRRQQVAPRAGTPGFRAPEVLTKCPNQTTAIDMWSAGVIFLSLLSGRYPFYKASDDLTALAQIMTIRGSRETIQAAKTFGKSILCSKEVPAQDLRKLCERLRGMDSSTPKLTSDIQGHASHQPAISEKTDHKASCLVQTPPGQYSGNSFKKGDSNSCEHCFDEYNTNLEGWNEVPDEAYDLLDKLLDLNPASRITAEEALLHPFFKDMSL
Sequence of MAP kinase-interacting serine/threonine-protein kinase 1 (Homo sapiens) (Q9BUB5 whole entry, looked up): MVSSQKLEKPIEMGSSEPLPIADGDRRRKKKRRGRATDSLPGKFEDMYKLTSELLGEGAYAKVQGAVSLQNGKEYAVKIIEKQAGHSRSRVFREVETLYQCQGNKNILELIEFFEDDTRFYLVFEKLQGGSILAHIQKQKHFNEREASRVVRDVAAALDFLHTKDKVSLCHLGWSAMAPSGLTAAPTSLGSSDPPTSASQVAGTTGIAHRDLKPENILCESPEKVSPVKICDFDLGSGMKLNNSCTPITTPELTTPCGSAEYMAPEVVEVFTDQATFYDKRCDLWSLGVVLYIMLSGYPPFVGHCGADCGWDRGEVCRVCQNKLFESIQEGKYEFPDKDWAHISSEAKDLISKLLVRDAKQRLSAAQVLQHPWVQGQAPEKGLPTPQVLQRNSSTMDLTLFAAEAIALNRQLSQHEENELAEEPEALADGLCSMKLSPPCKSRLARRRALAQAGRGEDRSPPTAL
Sequence of Protein-tyrosine kinase 6 (Homo sapiens) (Q13882 whole entry, looked up): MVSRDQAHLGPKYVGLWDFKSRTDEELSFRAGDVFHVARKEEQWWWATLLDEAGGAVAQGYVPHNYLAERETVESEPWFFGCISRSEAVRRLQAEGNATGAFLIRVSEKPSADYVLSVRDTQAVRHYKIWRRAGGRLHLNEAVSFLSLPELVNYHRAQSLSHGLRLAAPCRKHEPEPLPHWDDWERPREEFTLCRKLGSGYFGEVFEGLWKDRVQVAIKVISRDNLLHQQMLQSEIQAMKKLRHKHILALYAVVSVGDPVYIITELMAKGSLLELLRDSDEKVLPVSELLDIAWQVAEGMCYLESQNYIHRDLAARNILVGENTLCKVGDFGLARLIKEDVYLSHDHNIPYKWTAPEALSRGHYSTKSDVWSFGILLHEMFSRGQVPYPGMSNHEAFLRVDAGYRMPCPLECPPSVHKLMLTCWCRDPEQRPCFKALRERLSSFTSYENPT
Sequence of Tyrosine-protein kinase Fgr (Homo sapiens) (P09769 2-529 limits assumed): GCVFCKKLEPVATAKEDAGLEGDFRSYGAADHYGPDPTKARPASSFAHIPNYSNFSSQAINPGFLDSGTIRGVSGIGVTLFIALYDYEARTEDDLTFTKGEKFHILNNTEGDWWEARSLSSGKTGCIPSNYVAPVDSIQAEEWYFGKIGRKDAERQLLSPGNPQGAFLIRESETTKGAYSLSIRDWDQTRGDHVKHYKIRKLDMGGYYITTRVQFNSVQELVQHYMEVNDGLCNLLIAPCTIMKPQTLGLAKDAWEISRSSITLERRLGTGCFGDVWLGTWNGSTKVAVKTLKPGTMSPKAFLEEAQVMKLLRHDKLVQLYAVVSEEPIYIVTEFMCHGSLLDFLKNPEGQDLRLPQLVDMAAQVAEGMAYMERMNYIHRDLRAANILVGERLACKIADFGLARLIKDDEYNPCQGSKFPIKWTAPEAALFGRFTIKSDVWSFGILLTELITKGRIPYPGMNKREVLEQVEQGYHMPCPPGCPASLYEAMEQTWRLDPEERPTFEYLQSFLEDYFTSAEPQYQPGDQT

Broadly, the inhibition is the change of the read-out against control, counted positive when it falls. With `CS(=O)(=O)c1cccc(Nc2nccc(-c3sc(N4CCOCC4)nc3-c3cccc(NS(=O)(=O)c4c(F)cccc4F)c3)n2)c1`, the inhibition worked out at 9.73% in experiment [1]; 100% in experiment [2]; 102% in experiment [3]; 73% in experiment [4]; 100% in experiment [5]; 21.9% in experiment [6]. Besides, the inhibition is 3.98% in experiment [7] and 6.09% in experiment [8].

For the compound `CC(C)(C)c1cc(NC(=O)Nc2ccc(Oc3ccncc3)cc2)no1`, the inhibition amounted to 5.38% in experiment [1]; 95.7% in experiment [2]; 21.2% in experiment [3]; 99.6% in experiment [4]; 90.7% in experiment [5]; 50.2% in experiment [6]. Further, the inhibition in experiment [7] was 10%; in experiment [8], 3.72%.

Take `COCCNC(=O)c1ccc2c(c1)nc(-c1cnc(-c3ccc(Cl)cc3)[nH]1)n2CCOC`: the inhibition in experiment [1] was 6.05%; in experiment [2] it was 84.4%; in experiment [3], 19.8%; in experiment [4], 28.7%; in experiment [5], 67.5%; in experiment [6], 2.32%. The inhibition in experiment [7] was 5.07%; in experiment [8], 0.63%.
